SMILES strings stand for the structures.

Common to all, as to type: cell-based, human
One assay has as its system T47D breast cancer cells. Kind of assay: MTT growth inhibition assay (72 h). The conditions noted are these: Homo sapiens, Breast (ER/PR). An excerpt:
(§1) Each BBQ analogue, 2-14 was screened for their growth inhibition ability (GI50) in a broad panel of cancer cell lines and a non-cancer breast cell line (MCF10A), using the MTT growth inhibition assay (Table 1) ([Baker et al., 2021b]). The cancer panel comprised HT29 (colorectal), U87 (brain), SJ-G2 (brain), A2780 (ovary), Du145 (prostate), BE2-C (neuronal), MIA (pancreas), H460 (lung, ER+), A431 (vulva, ER+ (estrogen receptor positive)), and a wide selection of breast cancer cell lines with varying receptor status including MCF-7 (ER + luminal A), T47D (ER/PR+ (progesterone receptor positive)luminal A), ZR-75-1 (ER/PR + luminal A), BT-474 (ER/PR/HER2+ luminal B), SKBR-3 (HER2+), MDA-MB-468, BT20, and MDA-MB-231 (basal, triple negative (TN) for ER, PR, and HER2).
(§2) Stock solutions were prepared as follows and stored as 20 mM DMSO solutions at −20 °C. All cell lines were cultured in a humidified atmosphere 5% CO2 at 37 °C. The cancer cell lines were maintained in Dulbecco’s modified Eagle’s medium (DMEM) (Trace Biosciences, Australia) supplemented with 10% foetal bovine serum (FBS), 10 mM sodium bicarbonate, penicillin (100 IU/mL), streptomycin (100 μg/mL), and glutamine (4 mM). The non-cancer MCF10A cell line was cultured in DMEM:F12 (1:1) cell culture media, 5% heat inactivated horse serum, supplemented with penicillin (50 IU/mL), streptomycin (50 μg/mL), 20 mM Hepes, L-glutamine (2 mM), epidermal growth factor (20 ng/mL), hydrocortisone (500 ng/mL), cholera toxin (100 ng/mL), and insulin (10 μg/mL). The AhR reporter cell line HT29-Lucia™ (Invivogen, United States) was maintained in DMEM supplemented with 10% heat inactivated FBS, L-glutamine (2 mM), penicillin (100 IU/mL), streptomycin (100 μg/mL), 100 μg/mL Normocin™, and 100 μg/mL of the selective antibiotic Zeocin™. All cell lines were purchased from the American Type Culture Collection (ATCC), except for A2780 and A431 which were from the European Collection of Authenticated Cell Cultures (ECACC), and SJ-G2 cell line which was from Dr Mary Danks, St Jude Children’s Research hospital, Memphis, TN.
(§3) Cells in logarithmic growth were transferred to 96-well plates. Cytotoxicity was determined by plating cells in duplicate in 100 μL medium at a density of 2,500–4,000 cells/well in 96 well plates. On day 0, (24 h after plating) when the cells were in logarithmic growth 100 μL medium with or without the test agent was added to each well. After 72 h drug exposure growth inhibitory effects were evaluated using the MTT (3-[4,5-dimethylthiazol-2-yl]-2,5-diphenyltetrazolium bromide) assay with absorbance read at 540 nm. An eight-point dose response curve was produced, using MS Excel software. From these dose-response curves, the GI50 value was calculated, representing the drug concentration at which cell growth is 50% inhibited based on the difference between the optical density values on day 0 and those at the end of drug exposure ([Bradshaw et al., 2008]; [Zhang et al., 2009]). Each data point was conducted in duplicate and the mean ± S.E.M. calculated from four to five replicates (n = 4 or 5), which were performed on separate occasions and separate cell line passages. Where shown, significant test results were determined using T-test analysis at p < 0.01 and p < 0.05 with a two tail distribution.
On the technique in general: Formazan colour is commonly taken as a measure of viable cells.

The next assay has as its system Du145 (prostate) cells. The assay can be described thus: MTT growth inhibition assay (72 h). The settings on record: Homo sapiens, DU-145.
Source text: as §1, §2, §3

Assay [1] concerns MDA-MB-468 breast cancer cells. The assay can be described thus: MTT growth inhibition assay (72 h). The settings on record: Homo sapiens, MDA-MB-468, Breast (TN).
Source text: as §1, §2, §3

In another assay the test system is U87 (brain) cells. Kind of assay: MTT growth inhibition assay (72 h). The settings on record: Homo sapiens, U87, Brain (GBM).
Source text: as §1, §2, §3

For a further assay, the system named is A2780 (ovary) cells. The assay can be described thus: MTT growth inhibition assay (72 h). The settings on record: Homo sapiens.
Source text: as §1, §2, §3

Assay [2] has as its system MCF-7 breast cancer cells. Kind of assay: MTT growth inhibition assay (72 h). The conditions noted are these: Homo sapiens, MCF7, MCF-7, Breast (ER).
Source text: as §1, §2, §3

The next assay relates to H460 (lung) cells. Kind of assay: MTT growth inhibition assay (72 h). The conditions noted are these: Homo sapiens, NCI-H460, H460, Lung (ER).
Source text: as §1, §2, §3

In a further assay the test system is BE2-C (neuronal) cells. Kind of assay: MTT growth inhibition assay (72 h). The conditions noted are these: Homo sapiens, BE(2)-C, Neuron.
Source text: as §1, §2, §3

Assay [3] deals with ZR-75-1 breast cancer cells. Kind of assay: MTT growth inhibition assay (72 h). The settings on record: Homo sapiens, ZR-75-1, Breast (ER/PR).
Source text: as §1, §2, §3

The subject of assay [4] is BT474 breast cancer cells. Kind of assay: MTT growth inhibition assay (72 h). The settings on record: Homo sapiens, BT-474, BT474, Breast (ER/PR/HER2).
Source text: as §1, §2, §3

The next assay concerns SJ-G2 (brain) cells. The assay can be described thus: MTT growth inhibition assay (72 h). The settings on record: Homo sapiens, SJ-G2, Brain (GBM).
Source text: as §1, §2, §3

The subject of assay [5] is MCF10A normal breast cells. The assay can be described thus: MTT growth inhibition assay (72 h). The conditions noted are these: Homo sapiens, MCF-10A.
Source text: as §1, §2, §3

In a further assay the test system is HT29 (colorectal) cells. Kind of assay: MTT growth inhibition assay (72 h). The settings on record: Homo sapiens, HT-29, HT29, Colon.
Source text: as §1, §2, §3

Assay [6] deals with SKBR3 breast cancer cells. The assay can be described thus: MTT growth inhibition assay (72 h). The conditions noted are these: Homo sapiens, SK-BR-3, SKBR3, Breast (HER2).
Source text: as §1, §2, §3

Another assay deals with BT20 breast cancer cells. Kind of assay: MTT growth inhibition assay (72 h). The conditions noted are these: Homo sapiens, BT-20, BT20, Breast (TN).
Source text: as §1, §2, §3

In a further assay the test system is MIA (pancreas) cells. Kind of assay: MTT growth inhibition assay (72 h). The conditions noted are these: Homo sapiens.
Source text: as §1, §2, §3

The next assay concerns A431 (vulva/skin) cells. Kind of assay: MTT growth inhibition assay (72 h). The conditions noted are these: Homo sapiens, A-431, A431, Skin (ER).
Source text: as §1, §2, §3

In assay [7] the test system is MDA-MB-231 breast cancer cells. The assay can be described thus: MTT growth inhibition assay (72 h). The settings on record: Homo sapiens, MDA-MB-231, Breast (TN).
Source text: as §1, §2, §3

Assay [8] relates to broad panel of cancer cell lines and non-cancer breast cell line MCF10A. The assay can be described thus: MTT growth inhibition: GI50 ranges and selectivity across the cell line panel.
Source text: as §1, §2, §3

The GI50 is the concentration that inhibits growth by half. For `O=c1c2cccc3cccc(c32)c2nc3cc(Cl)ccc3n12` [Compound 4, 11-Chloro-7H-benzo[de]benzo[4,5]imidazo[2,1-a]isoquinolin-7-one], the GI50 in the assay on T47D breast cancer cells came to 8.6 ± 2.2 µM; with Du145 (prostate) cells it was 12 ± 0.33 µM; in assay [1], 0.88 ± 0.17 µM; in the assay on U87 (brain) cells, 18 ± 1.8 µM; in the assay with A2780 (ovary) cells it was 6 ± 0.32 µM; in [2] it was 5.3 ± 0.39 µM. Moreover, the 50% growth inhibitory concentration (GI50) with H460 (lung) cells was 8.2 ± 1.92 µM; with BE2-C (neuronal) cells, 10 ± 1.7 µM; in assay [3], 0.81 ± 0.43 µM; in [4] it was > 50 µM; in the assay with SJ-G2 (brain) cells, 8.8 ± 1.1 µM; in assay [5], 4.1 ± 0.2 µM. The 50% growth inhibitory concentration (GI50) came to 18 ± 3.2 µM in the assay on HT29 (colorectal) cells; 0.26 ± 0.07 µM in [6]; 28 ± 3 µM in the assay with BT20 breast cancer cells; 31 ± 3.3 µM in the assay on MIA (pancreas) cells; 10 ± 2 µM in the assay on A431 (vulva/skin) cells; 9 ± 1 µM in assay [7]. Moreover, the GI50 in assay [8] (Homo sapiens, read-out: GI50 (range over cell lines and both compounds 3 and 4), ZR-75-1, SKBR3 and MDA-MB-468) was 0.26 to 0.88 µM. For the same compound, the “greatest difference between growth inhibition in breast cancer cells and normal breast cells (fold)” value in assay [8] (SKBR3 vs MCF10A) is recorded as 16 fold.
